Data set [1] has as its system panel of 114 enzyme and receptor binding assays. Nature of the data set: Off-target panel of 114 enzyme and receptor-binding assays. The settings on record: for Off-target activity: 10 μM, panel of 114 assays; for IC50: tested at 10 µM, 114 assays, read-out: IC50 in all off-target assays. The procedure:
MK-8527 and MK-8527-TP were evaluated at 10 µM final concentration at Eurofins Panlabs (Taipei, Taiwan) for activity against a panel of 114 enzyme, radioligand binding, and cellular assays, including 70 G-protein coupled receptor, 13 ion channel, 7 kinase, 7 nuclear hormone receptor, 6 transporter, 4 protease, 2 neurotransmitter metabolism, 2 lipid metabolism, 2 oxidoreductase, and 1 phosphodiesterase assays.

Data set [2] concerns panel of unrelated viruses. To be noted: all other viruses of the panel, up to highest concentration tested, 50 µM.
A further data set addresses T1, human DNA polymerase α (Homo sapiens, UniProt P09884).
T1 sequence (P09884 1-1462): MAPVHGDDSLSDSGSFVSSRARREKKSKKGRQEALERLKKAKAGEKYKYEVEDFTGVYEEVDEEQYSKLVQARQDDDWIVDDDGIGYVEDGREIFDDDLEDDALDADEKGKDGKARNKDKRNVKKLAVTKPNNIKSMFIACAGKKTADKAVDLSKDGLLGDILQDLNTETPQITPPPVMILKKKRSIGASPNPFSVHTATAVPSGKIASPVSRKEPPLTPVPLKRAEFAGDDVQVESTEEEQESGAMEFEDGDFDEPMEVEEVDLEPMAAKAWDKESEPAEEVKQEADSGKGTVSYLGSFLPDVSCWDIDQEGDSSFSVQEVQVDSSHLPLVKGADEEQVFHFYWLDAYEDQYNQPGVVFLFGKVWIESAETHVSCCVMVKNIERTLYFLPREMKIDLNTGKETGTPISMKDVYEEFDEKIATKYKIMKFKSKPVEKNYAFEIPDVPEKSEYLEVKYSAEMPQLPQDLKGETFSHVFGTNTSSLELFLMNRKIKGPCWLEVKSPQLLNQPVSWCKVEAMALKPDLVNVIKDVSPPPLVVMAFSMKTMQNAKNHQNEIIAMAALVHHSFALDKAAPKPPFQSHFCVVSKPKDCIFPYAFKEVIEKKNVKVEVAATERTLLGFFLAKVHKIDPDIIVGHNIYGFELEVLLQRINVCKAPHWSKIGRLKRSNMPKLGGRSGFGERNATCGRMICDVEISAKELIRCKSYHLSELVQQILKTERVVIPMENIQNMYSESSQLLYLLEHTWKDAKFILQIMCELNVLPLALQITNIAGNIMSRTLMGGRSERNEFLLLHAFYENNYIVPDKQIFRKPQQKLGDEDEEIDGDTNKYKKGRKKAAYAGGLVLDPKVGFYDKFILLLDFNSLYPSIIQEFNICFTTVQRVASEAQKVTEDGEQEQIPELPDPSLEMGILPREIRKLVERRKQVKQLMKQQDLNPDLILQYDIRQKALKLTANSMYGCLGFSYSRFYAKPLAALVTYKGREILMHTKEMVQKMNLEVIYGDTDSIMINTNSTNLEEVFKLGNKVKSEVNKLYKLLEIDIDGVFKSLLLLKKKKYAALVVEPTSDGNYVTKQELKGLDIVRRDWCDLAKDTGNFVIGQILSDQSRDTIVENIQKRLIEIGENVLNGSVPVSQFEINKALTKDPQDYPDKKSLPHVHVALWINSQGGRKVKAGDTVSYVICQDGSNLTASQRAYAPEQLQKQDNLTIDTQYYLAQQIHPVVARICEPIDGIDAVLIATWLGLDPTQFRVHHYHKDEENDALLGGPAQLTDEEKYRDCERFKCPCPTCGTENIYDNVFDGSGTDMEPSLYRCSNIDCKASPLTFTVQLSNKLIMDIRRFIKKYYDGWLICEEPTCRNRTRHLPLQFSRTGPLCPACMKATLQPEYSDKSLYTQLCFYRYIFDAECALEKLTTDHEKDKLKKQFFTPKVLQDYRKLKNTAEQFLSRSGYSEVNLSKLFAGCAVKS
Nature of the data set: Human DNA polymerase α inhibition assay. It counts as biochemical. To be noted: top concentration 200 µM. The procedure: The activities of human DNA polymerases α, β, and γ were measured in radiolabeled nucleotide incorporation assays. TP was prepared as a 10-point titration with 3-fold serial dilution in water. Reaction buffers for the DNA polymerase α and β assays both contained 20 mM Tris pH 7.5, 10 mM MgCl2, 50 μM EDTA, 200 μg/mL bovine serum albumin (BSA), 2 mM dithiothreitol (DTT), 1.6 μM each of dNTP (dATP, dCTP, dGTP, and dTTP), 20 μCi/mL [α33P]dATP, 0.1 mg/mL gapped activated fish sperm DNA template, test compound, and 0.005 U/μL DNA polymerase α or 0.0025 U/μL DNA polymerase β. The reaction buffer for DNA polymerase γ contained 20 mM Tris pH 8, 10 mM MgCl2, 50 mM KCl, 100 μg/mL BSA, 2 mM β-mercaptoethanol, 10 μM of each dNTP (dATP, dCTP, dGTP, and dTTP), 20 μCi/mL [α33P]dATP, 0.04 mg/mL gapped activated fish sperm DNA template, test compound, and 0.0003 μg/μL DNA polymerase γ. The 50-μL reactions were incubated at room temperature for 30 min (for β and γ) or 90 min (for α) before terminating with the addition of 50 μL 500 mM EDTA. The reaction mixtures were transferred to a Millipore DE81 filter plate (EMD Millipore; Hayward, CA), washed with 0.5 M sodium phosphate pH 7.0, and dried. After addition of 40 μL scintillant to each well, the incorporation of labeled dATP was determined with a microplate counter (TopCount NXT HTS; PerkinElmer, Shelton, CA, USA).

A further data set addresses T2, HIV RT (Human immunodeficiency virus type 1 group M subtype B, UniProt P04585).
T2 construct: HIV RT (final concentration, 1,200 nM)
Nature of the data set: HIV-RT primer extension assay (chain termination). It counts as biochemical. The settings on record: 1 µM each dNTP. The procedure:
The reaction protocol was adapted from previous work. Primers and template used for this assay are described in Fig 8A.
All reagent stocks were in a base assay buffer consisting of 50 mM Tris pH 7.5 and 50 mM NaCl in nuclease-free water. […] Samples were then heated to 95 °C for 10 min prior to storage at −20 °C until being resolved by polyacrylamide gel electrophoresis with 7 M urea.

As to `C#C[C@]1(CO)O[C@@H](n2ccc3c(N)nc(Cl)nc32)C[C@@H]1O` [Compound 12, (2R,3S,5R)-5-(4-amino-2-chloro-7H-pyrrolo[2,3-d]pyrimidin-7-yl)-2-ethynyl-2-(hydroxymethyl)tetrahydrofuran-3-ol], in data set [1], the Off-target activity entry is given as “no off-target activities” and the half-maximal inhibitory concentration (IC50) was above 10 µM. Moreover, in data set [2], the “Antiviral activity or cytotoxicity” value was “did not display antiviral activity or cytotoxicity”.
With `C#C[C@]1(COP(=O)(O)OP(=O)(O)OP(=O)(O)O)O[C@@H](n2ccc3c(N)nc(Cl)nc32)C[C@@H]1O` [MK-8527-TP], on human DNA polymerase α, the half-maximal inhibitory concentration (IC50) is 95 µM. In data set [1], the Off-target activity result is given as “no off-target activities” and the IC50 was above 10 µM. Moreover, the “Chain termination mechanism (ICT/DCT)” value at HIV RT was “both ICT and DCT occurred”.

Values taken from paper PMC12380353, “MK-8527 is a novel inhibitor of HIV-1 reverse transcriptase translocation with potential for extended-duration dosing” (PLOS Biology, 2025).
